Experimental data from US20210330596A1, “PHARMACEUTICAL COMPOSITION FOR USE IN A COMBINATION WITH CA[…] ENHANCE BENEFITS OF CA[…] SUPPORT HUMAN ENDOCANNABINOID SYSTEM” (priority 2020, published 2021).
Where “and” joins values, the source holds several entries; their conditions need not be identical. Identical values can stand only once.

Tested on: mice's endocannabinoid system
Test: maze and food trial: time the mice need to solve the maze after feed
Assay type: in vivo
Conditions: for time to solve the maze, Time 0, individual mouse / time to solve the maze, Time 0, Average: 10 minutes after feed; for time to solve the maze, Time 0, individual mouse / time to solve the maze, Time 1, individual mouse: mouse # 1-10 in table order; for time to solve the maze, Time 0, Average / time to solve the maze, Time 1, Average: ten mice; for time to solve the maze, Time 1, individual mouse / time to solve the maze, Time 1, Average: 120 minutes after feed
Description: In an embodiment, the pharmaceutical composition of the present invention relates to an essential oil rich composition that supports the endocannabinoid system. Following tables 1-5 describe trials conducted with ten mice (Wistar) utilizing a maze and food to determine how long on average the mice solves the maze at 10 and 120 minutes after starting the experiment.
Table 1 is the base when the mice learned the experiment. It took 7 days of training (4 repetitions per day) to get the base time for each mice.
The Average Time results were statistically slower to the Control (Table 3) results with a standard deviation of less than 3%. The slowness with which the mice solved the maze leads us to believe either the embodiment has some entourage effect (as described by Ben-Shabat et. Al. in the European Journal of Pharmacology, 1998) or has supported the endocannabinoid system in mice because the mice took at least as long to solve the maze as before they developed tolerance to THC. The Entourage Effect was also described by Russo et. al. in his paper “Taming THC: potential cannabis synergy and phytocannabinoid-terpenoid entourage effects”, published in the British Journal of Pharmacology, 2011 August; 163(7): 1344-1364.
In this Table we see the results of THC 24 hours after the embodiment was administered. Mice on average take 1-5 hours to digest food. It is estimated that mice will have completely metabolized the embodiment after 24 hours. After THC was administered but now without the embodiment, mice are experiencing the same heightened effects of THC as in FIG. 4, even after the embodiment was not present in their body after a 24 hour period.

[1] = Day 1 CONTROL, 0.3 mgTHC/kg, before tolerance
[2] = Day 14 BASELINE 2 (acquired tolerance), 0.3 mgTHC/kg/day
[3] = TRIAL 2, 0.3 mgTHC + 0.0 mg embodiment/kg, THC 24 hours after the embodiment was administered

CCCCCc1cc(O)c2c(c1)OC(C)(C)[C@@H]1CCC(C)=C[C@@H]21 [THC, Tetrahydrocannabinol]
time to solve the maze, Time 0, individual mouse [1]: 16 ± 3 minutes and 17 ± 3 minutes (2×) and 23 ± 3 minutes and 20 ± 3 minutes and 25 ± 3 minutes and 30 ± 3 minutes and 26 ± 3 minutes and 19 ± 3 minutes and 24 ± 3 minutes | time to solve the maze, Time 0, Average [1]: 22 ± 3 min | time to solve the maze, Time 1, individual mouse [1]: 14 ± 3 minutes (2×) and 10 ± 3 minutes (2×) and 19 ± 3 minutes (2×) and 22 ± 3 minutes (2×) and 21 ± 3 minutes and 16 ± 3 minutes | time to solve the maze, Time 1, Average [1]: 17 ± 3 min | time to solve the maze, Time 0, individual mouse [2]: 16 ± 3 minutes (2×) and 19 ± 3 minutes (2×) and 18 ± 3 minutes (2×) and 14 ± 3 minutes and 13 ± 3 minutes and 12 ± 3 minutes and 11 ± 3 minutes | time to solve the maze, Time 0, Average [2]: 14 ± 3 min | time to solve the maze, Time 1, individual mouse [2]: 14 ± 3 minutes and 15 ± 3 minutes (2×) and 12 ± 3 minutes and 10 ± 3 minutes (4×) and 11 ± 3 minutes (2×) | time to solve the maze, Time 1, Average [2]: 12 ± 3 min | time to solve the maze, Time 0, individual mouse [3]: 27 ± 3 minutes (2×) and 20 ± 3 minutes and 22 ± 3 minutes (2×) and 17 ± 3 minutes and 16 ± 3 minutes and 21 ± 3 minutes and 18 ± 3 minutes and 29 ± 3 minutes | time to solve the maze, Time 0, Average [3]: 22 ± 3 min | time to solve the maze, Time 1, individual mouse [3]: 22 ± 3 minutes and 19 ± 3 minutes (2×) and 16 ± 3 minutes and 23 ± 3 minutes and 15 ± 3 minutes and 12 ± 3 minutes and 9 ± 3 minutes and 17 ± 3 minutes and 20 ± 3 minutes | time to solve the maze, Time 1, Average [3]: 17 ± 3 min | maze solved faster on average than the Control Time, T0 (after 15 days of daily THC dose of 0.3 mgTHC/kg, Time 0 (10 minutes after feed), tolerance to THC): 40% | maze solved faster on average than the Control Time, T1 (after 15 days of daily THC dose of 0.3 mgTHC/kg, Time 1 (120 minutes after feed), tolerance to THC): up to 60%
